# Measured values taken from ChEMBL document CHEMBL5036347, “Design of the naphthyl-diarylpyrimidines as potent non-nucleoside reverse transcriptase inhibitors (NNRTIs) via structure-based extension into the entrance channel” (Eur J Med Chem, 2021).
# System: Human immunodeficiency virus 1
# Assay: Anti-HIV activity against HIV-1 IIIB infected in human MT4 cells assessed as reduction in virus-induced cytopathic effect incubated for 5 days by MTT assay
# Assay type: functional, organism-based
# Settings: Human immunodeficiency virus 1, IIIB, MT4, 120 h
row,Structure (SMILES),EC50
1,CNc1cc(Oc2c(OC)cc3cc(C#N)ccc3c2OC)nc(Nc2ccc(C#N)cc2)n1,0.039 µM
2,CCC(C)Nc1cc(Oc2c(OC)cc3cc(C#N)ccc3c2OC)nc(Nc2ccc(C#N)cc2)n1 (configuration not stated),0.045 µM
3,CCCNc1cc(Oc2c(OC)cc3cc(C#N)ccc3c2OC)nc(Nc2ccc(C#N)cc2)n1,0.017 µM

# System: Human immunodeficiency virus 2
# Assay: Anti-HIV activity against HIV2 ROD infected in human MT4 cells assessed as reduction in virus-induced cytopathic effect incubated for 5 days by MTT assay
# Assay type: functional, organism-based
# Settings: Human immunodeficiency virus 2, ROD, MT4, 120 h
row,Structure (SMILES),EC50
1,CNc1cc(Oc2c(OC)cc3cc(C#N)ccc3c2OC)nc(Nc2ccc(C#N)cc2)n1,52.1 µM
2,CCC(C)Nc1cc(Oc2c(OC)cc3cc(C#N)ccc3c2OC)nc(Nc2ccc(C#N)cc2)n1 (configuration not stated),> 1000 µM
3,CCCNc1cc(Oc2c(OC)cc3cc(C#N)ccc3c2OC)nc(Nc2ccc(C#N)cc2)n1,> 1000 µM

# System: not listed separately
# Assay: Cytotoxicity against human MT4 cells assessed as reduction in cell viability incubated for 5 days by MTT assay
# Assay type: cell-based
# Settings: human, MT4 cells; time 5 day
row,Structure (SMILES),CC50 at 120 h
1,CNc1cc(Oc2c(OC)cc3cc(C#N)ccc3c2OC)nc(Nc2ccc(C#N)cc2)n1,239 µM
2,CCC(C)Nc1cc(Oc2c(OC)cc3cc(C#N)ccc3c2OC)nc(Nc2ccc(C#N)cc2)n1 (configuration not stated),> 125 µM
3,CCCNc1cc(Oc2c(OC)cc3cc(C#N)ccc3c2OC)nc(Nc2ccc(C#N)cc2)n1,> 125 µM

# System: Human immunodeficiency virus 1
# Assay: Antiviral activity against HIV1 harboring reverse transcriptase L100I mutant infected in human MT4 cells assessed as protection against virus-induced cytopathic effect incubated for 5 days by MTT assay
# Assay type: functional, organism-based
# Settings: Human immunodeficiency virus 1, MT4, 120 h
row,Structure (SMILES),EC50
1,CNc1cc(Oc2c(OC)cc3cc(C#N)ccc3c2OC)nc(Nc2ccc(C#N)cc2)n1,0.51 µM
2,CCC(C)Nc1cc(Oc2c(OC)cc3cc(C#N)ccc3c2OC)nc(Nc2ccc(C#N)cc2)n1 (configuration not stated),1.38 µM
3,CCCNc1cc(Oc2c(OC)cc3cc(C#N)ccc3c2OC)nc(Nc2ccc(C#N)cc2)n1,0.47 µM

# System: Human immunodeficiency virus 1
# Assay: Antiviral activity against HIV1 harboring reverse transcriptase K103N mutant infected in human MT4 cells assessed as protection against virus-induced cytopathic effect incubated for 5 days by MTT assay
# Assay type: functional, organism-based
# Settings: Human immunodeficiency virus 1, MT4, 120 h
row,Structure (SMILES),EC50
1,CNc1cc(Oc2c(OC)cc3cc(C#N)ccc3c2OC)nc(Nc2ccc(C#N)cc2)n1,0.046 µM
2,CCC(C)Nc1cc(Oc2c(OC)cc3cc(C#N)ccc3c2OC)nc(Nc2ccc(C#N)cc2)n1 (configuration not stated),0.42 µM
3,CCCNc1cc(Oc2c(OC)cc3cc(C#N)ccc3c2OC)nc(Nc2ccc(C#N)cc2)n1,0.016 µM

# System: Human immunodeficiency virus 1
# Assay: Antiviral activity against HIV1 harboring reverse transcriptase Y181C mutant infected in human MT4 cells assessed as protection against virus-induced cytopathic effect incubated for 5 days by MTT assay
# Assay type: functional, organism-based
# Settings: Human immunodeficiency virus 1, MT4, 120 h
row,Structure (SMILES),EC50
1,CNc1cc(Oc2c(OC)cc3cc(C#N)ccc3c2OC)nc(Nc2ccc(C#N)cc2)n1,0.31 µM
2,CCC(C)Nc1cc(Oc2c(OC)cc3cc(C#N)ccc3c2OC)nc(Nc2ccc(C#N)cc2)n1 (configuration not stated),0.43 µM
3,CCCNc1cc(Oc2c(OC)cc3cc(C#N)ccc3c2OC)nc(Nc2ccc(C#N)cc2)n1,0.18 µM

# System: Human immunodeficiency virus 1
# Assay: Antiviral activity against HIV1 harboring reverse transcriptase Y188L mutant infected in human MT4 cells assessed as protection against virus-induced cytopathic effect incubated for 5 days by MTT assay
# Assay type: functional, organism-based
# Settings: Human immunodeficiency virus 1, MT4, 120 h
row,Structure (SMILES),EC50
1,CNc1cc(Oc2c(OC)cc3cc(C#N)ccc3c2OC)nc(Nc2ccc(C#N)cc2)n1,2.2 µM
2,CCC(C)Nc1cc(Oc2c(OC)cc3cc(C#N)ccc3c2OC)nc(Nc2ccc(C#N)cc2)n1 (configuration not stated),3.97 µM
3,CCCNc1cc(Oc2c(OC)cc3cc(C#N)ccc3c2OC)nc(Nc2ccc(C#N)cc2)n1,1.15 µM

# System: Human immunodeficiency virus 1
# Assay: Antiviral activity against HIV1 harboring reverse transcriptase E138K mutant infected in human MT4 cells assessed as protection against virus-induced cytopathic effect incubated for 5 days by MTT assay
# Assay type: functional, organism-based
# Settings: Human immunodeficiency virus 1, MT4, 120 h
row,Structure (SMILES),EC50
1,CNc1cc(Oc2c(OC)cc3cc(C#N)ccc3c2OC)nc(Nc2ccc(C#N)cc2)n1,0.25 µM
2,CCC(C)Nc1cc(Oc2c(OC)cc3cc(C#N)ccc3c2OC)nc(Nc2ccc(C#N)cc2)n1 (configuration not stated),0.12 µM
3,CCCNc1cc(Oc2c(OC)cc3cc(C#N)ccc3c2OC)nc(Nc2ccc(C#N)cc2)n1,0.046 µM

# System: Human immunodeficiency virus 1
# Assay: Antiviral activity against HIV1 harboring reverse transcriptase F227L/V106A mutant infected in human MT4 cells assessed as protection against virus-induced cytopathic effect incubated for 5 days by MTT assay
# Assay type: functional, organism-based
# Settings: Human immunodeficiency virus 1, MT4, 120 h
row,Structure (SMILES),EC50
1,CNc1cc(Oc2c(OC)cc3cc(C#N)ccc3c2OC)nc(Nc2ccc(C#N)cc2)n1,10.6 µM
2,CCC(C)Nc1cc(Oc2c(OC)cc3cc(C#N)ccc3c2OC)nc(Nc2ccc(C#N)cc2)n1 (configuration not stated),> 1000 µM
3,CCCNc1cc(Oc2c(OC)cc3cc(C#N)ccc3c2OC)nc(Nc2ccc(C#N)cc2)n1,65.1 µM

# System: not listed separately
# Assay: Resistance fold, ratio of EC50 for HIV1 harboring reverse transcriptase Y181C mutant […] to EC50 for wild type HIV1 […]
# Assay type: functional
# Settings: not given
row,Structure (SMILES),Ratio EC50
1,CNc1cc(Oc2c(OC)cc3cc(C#N)ccc3c2OC)nc(Nc2ccc(C#N)cc2)n1,8
2,CCC(C)Nc1cc(Oc2c(OC)cc3cc(C#N)ccc3c2OC)nc(Nc2ccc(C#N)cc2)n1 (configuration not stated),10
3,CCCNc1cc(Oc2c(OC)cc3cc(C#N)ccc3c2OC)nc(Nc2ccc(C#N)cc2)n1,11

# System: not listed separately
# Assay: Resistance fold, ratio of EC50 for HIV1 harboring reverse transcriptase L100I mutant […] to EC50 for wild type HIV1 […]
# Assay type: functional
# Settings: not given
row,Structure (SMILES),Ratio EC50
1,CNc1cc(Oc2c(OC)cc3cc(C#N)ccc3c2OC)nc(Nc2ccc(C#N)cc2)n1,13
2,CCC(C)Nc1cc(Oc2c(OC)cc3cc(C#N)ccc3c2OC)nc(Nc2ccc(C#N)cc2)n1 (configuration not stated),31
3,CCCNc1cc(Oc2c(OC)cc3cc(C#N)ccc3c2OC)nc(Nc2ccc(C#N)cc2)n1,28

# System: not listed separately
# Assay: Resistance fold, ratio of EC50 for HIV1 harboring reverse transcriptase K103N mutant […] to EC50 for wild type HIV1 […]
# Assay type: functional
# Settings: not given
row,Structure (SMILES),Ratio EC50
1,CNc1cc(Oc2c(OC)cc3cc(C#N)ccc3c2OC)nc(Nc2ccc(C#N)cc2)n1,1
2,CCC(C)Nc1cc(Oc2c(OC)cc3cc(C#N)ccc3c2OC)nc(Nc2ccc(C#N)cc2)n1 (configuration not stated),9
3,CCCNc1cc(Oc2c(OC)cc3cc(C#N)ccc3c2OC)nc(Nc2ccc(C#N)cc2)n1,1

# System: Human immunodeficiency virus 1
# Assay: Antiviral activity against HIV1 harboring reverse transcriptase K103N/Y181C double mutant infected in human MT4 cells assessed as protection against virus-induced cytopathic effect incubated for 5 days by MTT assay
# Assay type: functional, organism-based
# Settings: Human immunodeficiency virus 1, MT4, 120 h
row,Structure (SMILES),EC50
1,CNc1cc(Oc2c(OC)cc3cc(C#N)ccc3c2OC)nc(Nc2ccc(C#N)cc2)n1,1.44 µM
2,CCC(C)Nc1cc(Oc2c(OC)cc3cc(C#N)ccc3c2OC)nc(Nc2ccc(C#N)cc2)n1 (configuration not stated),3.69 µM
3,CCCNc1cc(Oc2c(OC)cc3cc(C#N)ccc3c2OC)nc(Nc2ccc(C#N)cc2)n1,1.27 µM

# System: not listed separately
# Assay: Selectivity index, ratio of CC50 for cytotoxicity against human MT4 cells to EC50 of Anti-HIV activity against HIV-1 IIIB infected in human MT4
# Assay type: toxicity, cell-based
# Settings: read-out: Selectivity Index
row,Structure (SMILES),selectivity ratio
1,CNc1cc(Oc2c(OC)cc3cc(C#N)ccc3c2OC)nc(Nc2ccc(C#N)cc2)n1,4080
2,CCC(C)Nc1cc(Oc2c(OC)cc3cc(C#N)ccc3c2OC)nc(Nc2ccc(C#N)cc2)n1 (configuration not stated),> 5670
3,CCCNc1cc(Oc2c(OC)cc3cc(C#N)ccc3c2OC)nc(Nc2ccc(C#N)cc2)n1,> 15700

# System: not listed separately
# Assay: Resistance fold, ratio of EC50 for HIV1 harboring reverse transcriptase Y188L mutant […] to EC50 for wild type HIV1 […]
# Assay type: functional
# Settings: not given
row,Structure (SMILES),Ratio EC50
1,CNc1cc(Oc2c(OC)cc3cc(C#N)ccc3c2OC)nc(Nc2ccc(C#N)cc2)n1,56
2,CCC(C)Nc1cc(Oc2c(OC)cc3cc(C#N)ccc3c2OC)nc(Nc2ccc(C#N)cc2)n1 (configuration not stated),89
3,CCCNc1cc(Oc2c(OC)cc3cc(C#N)ccc3c2OC)nc(Nc2ccc(C#N)cc2)n1,68

# System: not listed separately
# Assay: Resistance fold, ratio of EC50 for HIV1 harboring reverse transcriptase E138K mutant […] to EC50 for wild type HIV1 […]
# Assay type: functional
# Settings: not given
row,Structure (SMILES),Ratio EC50
1,CNc1cc(Oc2c(OC)cc3cc(C#N)ccc3c2OC)nc(Nc2ccc(C#N)cc2)n1,6
2,CCC(C)Nc1cc(Oc2c(OC)cc3cc(C#N)ccc3c2OC)nc(Nc2ccc(C#N)cc2)n1 (configuration not stated),3
3,CCCNc1cc(Oc2c(OC)cc3cc(C#N)ccc3c2OC)nc(Nc2ccc(C#N)cc2)n1,3

# System: not listed separately
# Assay: Resistance fold, ratio of EC50 for HIV1 harboring reverse transcriptase F227L/V106A double mutant […] to EC50 for wild type HIV1 […]
# Assay type: functional
# Settings: not given
row,Structure (SMILES),Ratio EC50
1,CNc1cc(Oc2c(OC)cc3cc(C#N)ccc3c2OC)nc(Nc2ccc(C#N)cc2)n1,271
2,CCC(C)Nc1cc(Oc2c(OC)cc3cc(C#N)ccc3c2OC)nc(Nc2ccc(C#N)cc2)n1 (configuration not stated),>22472
3,CCCNc1cc(Oc2c(OC)cc3cc(C#N)ccc3c2OC)nc(Nc2ccc(C#N)cc2)n1,3827

# System: not listed separately
# Assay: Resistance fold, ratio of EC50 for HIV1 harboring reverse transcriptase K103N/Y181C double mutant […] to EC50 for wild type HIV1 […]
# Assay type: functional
# Settings: not given
row,Structure (SMILES),Ratio EC50
1,CNc1cc(Oc2c(OC)cc3cc(C#N)ccc3c2OC)nc(Nc2ccc(C#N)cc2)n1,37
2,CCC(C)Nc1cc(Oc2c(OC)cc3cc(C#N)ccc3c2OC)nc(Nc2ccc(C#N)cc2)n1 (configuration not stated),83
3,CCCNc1cc(Oc2c(OC)cc3cc(C#N)ccc3c2OC)nc(Nc2ccc(C#N)cc2)n1,75

# Target: Human immunodeficiency virus type 1 reverse transcriptase (Human immunodeficiency virus 1, UniProt Q72547)
# Assay: Inhibition of wild type HIV1 reverse transcriptase using oligo(dT)16 as primer measured after 40 mins by picogreen-dye based spectrofluorimetric analysis
# Settings: not given
row,Structure (SMILES),IC50
1,CNc1cc(Oc2c(OC)cc3cc(C#N)ccc3c2OC)nc(Nc2ccc(C#N)cc2)n1,0.24 µM
2,CCC(C)Nc1cc(Oc2c(OC)cc3cc(C#N)ccc3c2OC)nc(Nc2ccc(C#N)cc2)n1 (configuration not stated),0.26 µM
3,CCCNc1cc(Oc2c(OC)cc3cc(C#N)ccc3c2OC)nc(Nc2ccc(C#N)cc2)n1,0.11 µM
